Test results from the supplement of paper PMC10307832.

What was measured:
Assay in all cases: relative viability (nuclei count vs DMSO), 5 days (fraction); higher = more cells survive
[1] = compound: CN(C)C(=N)NC(=N)N [Metformin] + C[C@]1(O)C[C@@H](c2nc(-c3ccc4ccc(-c5ccccc5)nc4c3)c3c(N)nccn32)C1 [Linsitinib] (partner 1 µM)
Summary of the method: (§1)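 For relative viability, nuclei counts in treated wells were divided by those in vehicle wells. Lung cancer cell lines had been pin-tool dosed in 1536-well plates the day after seeding and cultured for 5 days, then fixed and stained in one step (final 0.05% Triton X-100, 1% formaldehyde, 1 ug/ml Hoechst) and imaged at 4×. Doses were one drug alone or a fixed anchor-drug dose plus five library-drug doses (not always all listed) in √10 steps, and values are duplicate-plate medians.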

[2] = compound: N#CC1(c2ccc(NC(=O)c3cccnc3NCc3ccncc3)cc2)CCCC1 [Apatinib] + C[C@@H](Oc1cc(-c2cnn(C3CCNCC3)c2)cnc1N)c1c(Cl)ccc(F)c1Cl [Crizotinib] (partner 1 µM)
Summary of the method: as §1

[3] = compound: N#CC1(c2ccc(NC(=O)c3cccnc3NCc3ccncc3)cc2)CCCC1 [Apatinib] + Nc1nc2[nH]cc(CCc3ccc(C(=O)N[C@@H](CCC(=O)O)C(=O)O)cc3)c2c(=O)[nH]1 [Pemetrexed] (partner 0.2 µM)
Summary of the method: as §1

[4] = compound: N#CC1(c2ccc(NC(=O)c3cccnc3NCc3ccncc3)cc2)CCCC1 [Apatinib] + O=C(c1cc(Cc2n[nH]c(=O)c3ccccc23)ccc1F)N1CCN(C(=O)C2CC2)CC1 [Olaparib] (partner 8 µM)
Summary of the method: as §1

| Cell Line | relative viability ([1]; first compound 10 µM) | relative viability ([1]; first compound 31.62 µM) | relative viability ([1]; first compound 100 µM) | relative viability ([1]; first compound 316.23 µM) | relative viability ([1]; first compound 1000 µM) | relative viability ([2]; first compound 0.08 µM) | relative viability ([2]; first compound 0.253 µM) | relative viability ([2]; first compound 0.8 µM) | relative viability ([2]; first compound 2.53 µM) | relative viability ([2]; first compound 8 µM) | relative viability ([3]; first compound 0.08 µM) | relative viability ([3]; first compound 0.253 µM) | relative viability ([3]; first compound 0.8 µM) | relative viability ([3]; first compound 2.53 µM) | relative viability ([3]; first compound 8 µM) | relative viability ([4]; first compound 0.08 µM) | relative viability ([4]; first compound 0.253 µM) | relative viability ([4]; first compound 0.8 µM) | relative viability ([4]; first compound 2.53 µM) | relative viability ([4]; first compound 8 µM) |
| --- | --- | --- | --- | --- | --- | --- | --- | --- | --- | --- | --- | --- | --- | --- | --- | --- | --- | --- | --- | --- |
| PC-14 | 1.03 | 0.955 | 0.916 | 0.918 | 1.03 | 0.925 | 0.99 | 0.841 | 0.863 | 0.915 | 0.142 | 0.133 | 0.124 | 0.0984 | 0.0405 | 0.278 | 0.28 | 0.222 | 0.213 | 0.252 |
| RERF-LC-KJ | 0.835 | 0.769 | 0.857 | 0.768 | 0.829 | 0.776 | 0.834 | 0.778 | 0.704 | 0.629 | 0.493 | 0.466 | 0.381 | 0.451 | 0.327 | 0.919 | 0.801 | 0.903 | 0.782 | 0.715 |
| NCI-H2085 | 0.822 | 0.8 | 0.765 | 0.844 | 0.875 | 0.89 | 0.794 | 0.797 | 0.777 | 0.623 | 0.949 | 0.777 | 0.876 | 0.823 | 0.782 | 0.763 | 0.748 | 0.766 | 0.68 | 0.771 |
| LC-2-ad | – | 0.716 | 0.628 | 0.695 | 0.678 | 0.477 | 0.496 | 0.463 | 0.473 | 0.482 | 0.248 | 0.299 | 0.259 | 0.267 | 0.233 | 0.747 | 0.658 | 0.699 | 0.743 | 0.668 |
| NCI-H23 | 0.701 | 0.623 | 0.705 | 0.675 | 0.763 | 0.49 | 0.578 | 0.421 | 0.49 | 0.57 | 0.747 | 0.855 | 0.677 | 0.57 | 0.439 | 0.305 | 0.322 | 0.301 | 0.316 | 0.238 |
| NCI-H647 | 1.11 | 1.14 | 1.24 | 1.19 | 1.2 | 1.18 | 1.23 | 1 | 0.846 | 0.737 | 0.176 | 0.172 | 0.165 | 0.139 | 0.127 | 0.65 | 0.794 | 0.508 | 0.418 | 0.305 |
| LXF-289 | 0.923 | 0.912 | 0.996 | 0.879 | 0.915 | 0.797 | 0.817 | 0.778 | 0.749 | 0.742 | 0.916 | 0.908 | 0.818 | 0.692 | 0.886 | 1.03 | 1.18 | 0.993 | 0.956 | 0.904 |
| PC-3 [JPC-3] | 0.895 | 1.01 | 0.902 | 0.918 | 0.942 | 1.02 | 0.962 | 0.922 | 0.933 | 0.901 | – | 1.05 | 1.05 | 0.726 | 0.807 | – | 1.12 | 0.983 | 1.1 | 1.06 |
